Measurements as given in paper PMC7948422, “Repurposing p97 inhibitors for chemical modulation of the bacterial ClpB–DnaK bichaperone system” (The Journal of Biological Chemistry, 2020).
Several values for one entry are separate records, joined by “and”; a condition that tells them apart may be missing. Equal values may be shown once. Entries after “also recorded” stand apart in the source; their conditions may differ.

Legend:
wt ClpB = target: T1, wt ClpB (Escherichia coli, UniProt P63284); test: Surface plasmon resonance, immobilized wt ClpB; format: binding
T1 construct: made in house
T1 sequence (P63284 whole entry): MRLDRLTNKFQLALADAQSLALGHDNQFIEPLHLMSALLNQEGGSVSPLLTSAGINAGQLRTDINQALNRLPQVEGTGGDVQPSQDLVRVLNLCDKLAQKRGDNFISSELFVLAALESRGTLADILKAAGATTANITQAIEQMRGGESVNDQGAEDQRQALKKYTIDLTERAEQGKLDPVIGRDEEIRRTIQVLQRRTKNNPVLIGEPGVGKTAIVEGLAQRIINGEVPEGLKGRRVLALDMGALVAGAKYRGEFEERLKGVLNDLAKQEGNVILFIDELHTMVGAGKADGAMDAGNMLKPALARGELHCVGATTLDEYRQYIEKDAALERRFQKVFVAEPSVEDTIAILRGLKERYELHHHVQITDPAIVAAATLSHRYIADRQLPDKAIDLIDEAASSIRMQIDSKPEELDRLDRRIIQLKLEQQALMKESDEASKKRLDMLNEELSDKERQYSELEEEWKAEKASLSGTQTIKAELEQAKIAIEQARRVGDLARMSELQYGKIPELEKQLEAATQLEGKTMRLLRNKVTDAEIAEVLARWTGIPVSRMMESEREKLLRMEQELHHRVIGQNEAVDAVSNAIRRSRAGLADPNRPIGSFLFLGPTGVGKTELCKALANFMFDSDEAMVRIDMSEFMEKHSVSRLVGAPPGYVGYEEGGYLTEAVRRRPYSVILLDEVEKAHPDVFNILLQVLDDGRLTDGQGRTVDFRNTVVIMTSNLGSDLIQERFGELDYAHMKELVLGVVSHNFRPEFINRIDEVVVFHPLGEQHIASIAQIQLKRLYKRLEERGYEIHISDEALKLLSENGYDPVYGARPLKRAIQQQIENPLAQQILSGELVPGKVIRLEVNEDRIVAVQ
Method: (§1) ClpB, DnaK, and the NBD of DnaK were extensively dialyzed against the SPR buffer (20-mM Hepes, pH 7.4, 150-mM NaCl, 20-mM MgCl2, 1-mM EDTA, 1-mM DTT). After dialysis, the protein concentration was determined by the Bradford method. The DBeQ–protein interactions were studied using a Biacore T200 instrument (GE Healthcare) at 25 °C. The proteins were diluted to 300 μg/ml in 10-mM sodium acetate buffer (pH 5 for ClpB DnaK or pH 4 for NBD) and immobilized on HC1500M sensor chips (Xantec) by standard amine coupling chemistry as described previously ([70]). A reference flow cell was created by ethyl(dimethylaminopropyl) carbodiimide/N-hydroxysuccinimide activation followed by quenching with 1 M ethanolamine (pH 9.0). Solvent correction curves were obtained at the beginning and end and after every 50 injection cycles by injecting varying DMSO concentrations (4.0, 4.4, 4.6, 4.8, 5.0, 5.2, 5.4, and 5.9% [v/v]). All experiments were performed using a flow rate of 30 μl/min.
(§2) Binding isotherms were obtained with the ligand diluted to different concentrations in the SPR running buffer HBSMTD (20-mM Hepes, pH 7.4, 140-mM NaCl, 20-mM MgCl2, 5% (v/v) DMSO, 0.005% (v/v) Tween-20). Replicate injections were performed for all samples, and a buffer-only injection was performed for every 12 injection cycles. To test the structural integrity of ClpB after immobilization on the sensor chips, we performed control titrations with ATPγS and adenosine. The dissociation constants determined from those experiments were ∼20 μM for ATPγS and ∼2 mM for adenosine. […] Moreover, the immobilized ClpB discriminated between a nucleotide analog and a nucleoside, which indicated an adequate structural integrity of ClpB on the sensor chips.
The resulting sensorgrams were analyzed using Biacore T200 Evaluation Software v3.0 according to the following procedure. Solvent correction curves were generated and applied to all data sets, and all sensorgrams were double-referenced by subtracting the most recent buffer blank injection. The signal immediately before injection stop of these corrected sensorgrams was treated as the binding response. GraphPad Prism was used for nonlinear least-squares fitting of the model assuming either noncooperative or cooperative binding of DBeQ to DnaK and ClpB, respectively.

ClpB W462F = target: T2, ClpB W462F (Escherichia coli, UniProt P63284, W462F); test: Surface plasmon resonance, immobilized ClpB W462F; format: binding
T2 construct: made in house
T2 sequence (P63284 whole entry W462F, looked up): as the sequence (P63284 whole entry) above, with W462F counted along it
Method: as §1, §2
The resulting sensorgrams were analyzed using Biacore T200 Evaluation Software v3.0 according to the following procedure. Solvent correction curves were generated and applied to all data sets, and all sensorgrams were double-referenced by subtracting the most recent buffer blank injection. […]

DnaK [1] = target: T3, DnaK (Escherichia coli, UniProt P0A6Y8); test: DnaK ATPase activity assay; format: biochemical; conditions: 100 µM DBeQ, 37 °C
T3 construct: full-length E. coli DnaK (residues 1–638); made in house; host or cells: E. coli BL21(DE3)
T3 sequence (P0A6Y8 whole entry, the tested form may be a part): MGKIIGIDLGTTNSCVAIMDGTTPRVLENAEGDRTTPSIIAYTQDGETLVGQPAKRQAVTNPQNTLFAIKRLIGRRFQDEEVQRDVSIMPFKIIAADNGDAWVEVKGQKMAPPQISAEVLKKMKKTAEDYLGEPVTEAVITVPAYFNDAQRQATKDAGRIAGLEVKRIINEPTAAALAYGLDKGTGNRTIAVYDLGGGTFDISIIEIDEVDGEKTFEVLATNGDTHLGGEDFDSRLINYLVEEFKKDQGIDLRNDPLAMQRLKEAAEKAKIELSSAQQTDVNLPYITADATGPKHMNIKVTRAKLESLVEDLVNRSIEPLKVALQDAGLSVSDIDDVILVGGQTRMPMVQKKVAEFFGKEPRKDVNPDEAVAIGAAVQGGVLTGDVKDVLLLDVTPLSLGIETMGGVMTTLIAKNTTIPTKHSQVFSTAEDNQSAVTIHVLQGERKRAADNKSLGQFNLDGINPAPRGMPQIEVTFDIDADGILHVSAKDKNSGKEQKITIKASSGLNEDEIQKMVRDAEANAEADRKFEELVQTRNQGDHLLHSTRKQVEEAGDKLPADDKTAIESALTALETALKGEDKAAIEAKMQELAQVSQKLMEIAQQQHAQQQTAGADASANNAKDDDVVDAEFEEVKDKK
Method: To determine the ATPase activity of DnaK, 18 μl of DnaK solution or DnaK NBD solution prepared in buffer C was mixed with 1 μl of the investigated compounds or DMSO as a control. Samples without DnaK were used as control blanks. The samples were preincubated for 10 min at 37 °C. The reaction was initiated by adding 1 μl of 100-mM ATP bringing the final concentration of DnaK to 1.1 μM or DnaK NBD to 3.4 μM. The samples were incubated at 37 °C for 70 min for DnaK or 75 min for NBD. The concentration of inorganic phosphate produced from ATP in the presence of DnaK was determined as described above for ClpB.

firefly luciferase = firefly luciferase (Photinus pyralis, UniProt P08659); test: Native firefly luciferase activity; format: biochemical; conditions: 100 µM compound
Sequence of firefly luciferase (P08659 whole entry): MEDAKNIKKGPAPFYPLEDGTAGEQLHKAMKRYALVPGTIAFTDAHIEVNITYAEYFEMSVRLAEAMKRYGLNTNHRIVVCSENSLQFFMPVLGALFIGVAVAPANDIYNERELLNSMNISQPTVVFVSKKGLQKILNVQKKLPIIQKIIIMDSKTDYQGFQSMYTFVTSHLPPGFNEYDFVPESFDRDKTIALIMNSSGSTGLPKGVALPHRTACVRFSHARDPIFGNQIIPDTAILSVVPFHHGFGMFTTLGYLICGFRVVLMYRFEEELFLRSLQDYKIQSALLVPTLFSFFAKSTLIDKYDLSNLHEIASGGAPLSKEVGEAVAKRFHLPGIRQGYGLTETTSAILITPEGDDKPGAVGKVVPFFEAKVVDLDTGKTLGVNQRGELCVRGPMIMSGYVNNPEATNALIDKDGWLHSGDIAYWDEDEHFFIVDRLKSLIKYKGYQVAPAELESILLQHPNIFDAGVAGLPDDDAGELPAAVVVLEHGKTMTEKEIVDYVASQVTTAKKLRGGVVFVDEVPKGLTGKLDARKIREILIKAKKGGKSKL

DnaK [2] = target: T3, DnaK; test: DnaK binding to FITC-B2 peptide, fluorescence anisotropy; conditions: FITC-B2 20 nM, increasing DBeQ
Method: To monitor interactions between the peptide B2 and DnaK, the DnaK stock was diluted in buffer C (50-mM Tris-HCl, pH 7.4, 20-mM MgCl2, 1-mM EDTA, 0.5-mM TCEP) to a final concentration of 1 μM. DBeQ solutions in DMSO (20 μl) were mixed with 372 μl of 1-μM DnaK. After 10 min of incubation at room temperature, the samples were supplemented with 8 μl of 1-μM FITC-B2 in buffer C (FITC-Ahx-[…]-NH2) ([51]). The FITC-B2 sample without DnaK was used as a control. After a 30-min incubation at room temperature, fluorescence anisotropy of FITC-B2 was measured with a PerkinElmer LS55 (λexc = 485 nm (slit: 15 nm), λem = 521 (slit: 20 nm)).

[3] = system: ClpB-YFP in dnaK103 E. coli; test: Confocal microscopy of ClpB-YFP localization; format: cell-based, Escherichia coli; conditions: dnaK103, 100-μM DBeQ, 45 °C 30 min
Method: ClpB-YFP and Luciferase-YFP were expressed at low levels in E. coli strains ΔclpB, dnaK103, and dnaK756 as described before ([44]). The expression of ClpB-YFP and YFP-Luciferase was initiated by addition of 200-μM IPTG or 0.02% (w/v) arabinose, respectively. The bacterial cells were cultured at 30 °C with 100-μM DBeQ or DMSO only. Protein translation was stopped by addition of erythromycin (30 μg/ml), and each culture was divided into two samples. One sample remained at 30 °C (control), whereas the other sample was transferred to 45 °C for 30 min (heat-shock conditions).
A thin layer of 1% agarose (TopVision Low Melting Point Agarose, Thermo Scientific) was prepared on a clean microscope glass slide. A small drop of 1% agarose was placed near the frosted end of the glass slide while bringing a second glass slide at a 30 to 45° angle from above, allowing the agarose drop to spread along the contact edge. […] An E. coli culture sample (1 μl) was immediately placed on the agarose-covered glass slide, covered with a cover slip, and used for fluorescence imaging.
Fluorescence imaging was performed using a Carl Zeiss LSM 880 Airyscan confocal microscope equipped with a Plan-Apochromat 63x/1.40 Oil DIC M27 objective coupled with a YFP Filter (excitation at 514 nm, emission at 561 nm, laser strength 0.98%). […]

## c1ccc(CNc2nc(NCc3ccccc3)c3ccccc3n2)cc1 [DBeQ, N^2,N^4-dibenzylquinazoline-2,4-diamine]
Wt ClpB
  Bmax (SPR signal at saturation), ClpB: 1.09 ± 0.02
Wt ClpB; SPR, cooperative binding model
  Hill coefficient, DBeQ binding to ClpB: 2.3 ± 0.3 and ~2.3 and > 2
Wt ClpB; apparent Kd, DBeQ binding to ClpB, SPR, 25 °C, cooperative binding model
  Kd: 64.4 µM and ~60 µM
ClpB W462F
  Kd: 61.4 ± 4.7 µM
ClpB W462F; SPR
  Bmax (SPR signal at saturation), ClpB W462F: 1.08 ± 0.03
  Hill coefficient, ClpB W462F: 2.4 ± 0.4
DnaK [1]
  effect on DnaK ATPase activity: did not detect inhibition; also recorded: did not affect
Firefly luciferase
  effect on native luciferase activity: not affected
DnaK [2]
  suppression of DnaK binding to substrate-mimicking peptide: did not detect
[3]
  ClpB-YFP localization with aggregates: ClpB colocalizes with the aggregates even in dnaK103
